According to patent publication US10098350B2, “Fungicidal amides” (E. I. DU PONT DE NEMOURS AND COMPANY, priority 2013, dated 2018):

Key:
Assay type in all cases: in vivo
[1] = tested on: Septoria tritici; test: Test C: wheat seedlings sprayed with test suspension, inoculated with Septoria tritici (wheat leaf blotch), visual disease rating
Text: (§1) General protocol for preparing test suspensions for Tests A-E: the test compounds were first dissolved in acetone in an amount equal to 3% of the final volume and then suspended at the desired concentration (in ppm) in acetone and purified water (50/50 mix by volume) containing 250 ppm of the surfactant Trem® 014 (polyhydric alcohol esters). The resulting test suspensions were then used in Tests A-E. Samples were applied to plants at either a 10 ppm (**), 40 ppm, 50 ppm (*) or 200 ppm (#) test solution to the point of run-off on the test plants with the equivalent of a rate of 40 g ai/ha, 160 g ai/ha, 200 g ai/ha, or 800 g ai/ha, respectively.
The test suspension was sprayed to the point of run-off on wheat seedlings. The following day the seedlings were inoculated with a spore suspension of Septoria tritici (the causal agent of wheat leaf blotch) and incubated in a saturated atmosphere at 24° C. for 48 h, and then moved to a growth chamber at 20° C. for 21 days, after which time visual disease ratings were made.
(§2) Results for Tests A-E are given in Table A. In the Table, a rating of 100 indicates 100% disease control and a rating of 0 indicates no disease control (relative to the controls). A dash (-) indicates no test results.

[2] = tested on: Stagonospora nodorum (also known as Septoria nodorum); test: Test B: wheat seedlings sprayed with test suspension, inoculated with Stagonospora nodorum (wheat glume blotch), visual disease rating
Text: as §1
The test suspension was sprayed to the point of run-off on wheat seedlings. The following day the seedlings were inoculated with a spore suspension of Stagonospora nodorum (also known as Septoria nodorum; the causal agent of wheat glume blotch) and incubated in a saturated atmosphere at 20° C. for 48 h, and then moved to a growth chamber at 20° C. for 6 days, after which time visual disease ratings were made.
as §2

[3] = tested on: Puccinia recondite f. sp. tritici; test: Test D: wheat seedlings sprayed with test suspension, inoculated with Puccinia recondite f. sp. tritici (wheat leaf rust), visual disease rating
Text: as §1
The test suspension was sprayed to the point of run-off on wheat seedlings. The following day the seedlings were inoculated with a spore suspension of Puccinia recondite f. sp. tritici; (the causal agent of wheat leaf rust) and incubated in a saturated atmosphere at 20° C. for 24 h, and then moved to a growth chamber at 20° C. for 6 days, after which time visual disease ratings were made.
as §2

[4] = tested on: Erysiphe graminis f. sp. tritici; test: Test E: wheat seedlings sprayed with test suspension, inoculated with Erysiphe graminis f. sp. tritici (wheat powdery mildew), visual disease rating
Text: as §1
The test suspension was sprayed to the point of run-off on wheat seedlings. The following day the seedlings were inoculated with a spore dust of Erysiphe graminis f. sp. tritici, (the causal agent of wheat powdery mildew) and incubated in a growth chamber at 20° C. for 7 or 8 days, after which time visual disease ratings were made.
as §2

[5] = Cmpd. No. marked '**' (other test rate; meaning of mark not shown)
[6] = Cmpd. No. unmarked, 100 = 100% disease control, 0 = no control relative to controls
[7] = Cmpd. No. marked '*' (other test rate; meaning of mark not shown)

SMILES | Test C rating (% disease control) [1, 6] | Test B rating (% disease control) [2, 6] | Test D rating (% disease control) [3, 6] | Test E rating (% disease control) [4, 6] | other results
CC(c1ncc(-n2cc(Cl)cn2)cc1Cl)N(C(=O)c1c(C(F)F)nn(C)c1F)C1CC1 (racemic) [compound 97] | – | – | – | – | Test C rating (% disease control) [1, 5]: 97%; Test B rating (% disease control) [2, 5]: 100%; Test D rating (% disease control) [3, 5]: 94%; Test E rating (% disease control) [4, 5]: 94%
Cn1nc(C(F)F)c(C(=O)N(Cc2ccc(-n3ccc(C(F)(F)F)n3)cc2Cl)C2CCC2)c1F [Compound 162] | – | – | – | – | Test C rating (% disease control) [1, 5]: 64%; Test B rating (% disease control) [2, 5]: 0%; Test D rating (% disease control) [3, 5]: 0%; Test E rating (% disease control) [4, 5]: 0%
Cn1nc(C(F)F)c(C(=O)N(Cc2ccc(-n3ccc(C(F)(F)F)n3)cc2Cl)C2COC2)c1F [Compound 164] | – | – | – | – | Test C rating (% disease control) [1, 5]: 46%; Test B rating (% disease control) [2, 5]: 0%; Test D rating (% disease control) [3, 5]: 0%; Test E rating (% disease control) [4, 5]: 0%
Cn1cc(C(=O)N(Cc2c(Cl)cc(-n3ccc(Br)n3)cc2Cl)C2CC2)c(C(F)F)n1 [compound 40] | 99% | 99% | 99% | 89% | –
CC(c1cc(-n2ccc(C(F)(F)F)n2)cc(C(F)(F)F)c1)N(C(=O)c1cn(C)nc1C(F)F)C1CC1 (stereo not drawn) [compound 42] | 39% | 0% | 0% | 0% | –
Cn1nc(C(F)F)c(C(=O)N(Cc2cnc(-n3ccc(C(F)(F)F)n3)c(Cl)c2)C2CC2)c1F [compound 43] | 6% | 0% | 0% | 0% | –
COc1ccc(C(C)N(C(=O)c2cn(C)nc2C(F)F)C2CC2)cc1-n1ccc(C(F)(F)F)n1 (stereo not drawn) [compound 44] | 87% | 78% | 0% | 0% | –
Cc1ccc(-n2ccc(C(F)(F)F)n2)cc1C(C)N(C(=O)c1cn(C)nc1C(F)F)C1CC1 (stereo not drawn) [compound 45] | 96% | 100% | 9% | 90% | –
Cn1nc(C(F)F)c(C(=O)N(Cc2ccc(-n3cccn3)cc2Cl)C2CC2)c1F [compound 46] | 99% | 100% | 94% | 98% | –
Cn1nc(C(F)F)c(C(=O)N(Cc2ccc(-n3ccc(Br)n3)cc2Cl)C2CC2)c1F [compound 47] | 99% | 100% | 98% | 99% | –
Cn1cc(C(=O)N(Cc2ccc(-n3cccn3)cc2Cl)C2CC2)c(C(F)F)n1 [compound 48] | 98% | 100% | 0% | 73% | –
Cn1cc(C(=O)N(Cc2ccc(-n3ccc(Br)n3)cc2Cl)C2CC2)c(C(F)F)n1 [compound 49] | 99% | 98% | 9% | 69% | –
Cn1cc(C(=O)N(Cc2ccc(-n3cncn3)cc2Cl)C2CC2)c(C(F)F)n1 [compound 50] | 28% | 0% | 0% | 0% | –
CC(c1ccc(C(F)(F)F)c(-n2ccc(C(F)(F)F)n2)c1)N(C(=O)c1c(C(F)F)nn(C)c1F)C1CC1 (stereo not drawn) [compound 51] | 88% | 100% | 0% | 84% | –
Cc1ccc(-n2ccc(C(F)(F)F)n2)cc1C(C)N(C(=O)c1c(C(F)F)nn(C)c1F)C1CC1 (stereo not drawn) [compound 52] | 99% | 100% | 93% | 99% | –
CC(c1cc(-n2ccc(C(F)(F)F)n2)ccc1Br)N(C(=O)c1c(C(F)F)nn(C)c1F)C1CC1 (stereo not drawn) [compound 53] | 97% | 100% | 74% | 96% | –
COc1ccc(C(C)N(C(=O)c2c(C(F)F)nn(C)c2F)C2CC2)cc1-n1ccc(C(F)(F)F)n1 (stereo not drawn) [compound 55] | 97% | 100% | 61% | 87% | –
CC(c1cc(-n2ccc(C(F)(F)F)n2)cc(C(F)(F)F)c1)N(C(=O)c1c(C(F)F)nn(C)c1F)C1CC1 (stereo not drawn) [compound 56] | 97% | 100% | 86% | 92% | –
Cn1nc(C(F)F)c(C(=O)N(Cc2ccc(-n3ccc(C(F)(F)F)n3)cc2OCC#N)C2CC2)c1F [compound 61] | 90% | 0% | 9% | 21% | –
C#CCOc1cc(-n2ccc(C(F)(F)F)n2)ccc1CN(C(=O)c1c(C(F)F)nn(C)c1F)C1CC1 [compound 62] | 99% | 99% | 99% | 94% | –
Cn1nc(C(F)F)c(C(=O)N(Cc2ccc(-n3nccn3)cc2Cl)C2CC2)c1F [compound 64] | 98% | 100% | 100% | 97% | –
Cn1nc(C(F)F)c(C(=O)N(Cc2ncc(-n3ccc(C(F)(F)F)n3)cc2C2CC2)C2CC2)c1F [compound 114] | – | – | – | – | Test C rating (% disease control) [1, 5]: 100%; Test D rating (% disease control) [3, 5]: 100%; Test E rating (% disease control) [4, 5]: 92%
COc1ccc(-n2ccc(C(F)(F)F)n2)cc1C(C)N(C(=O)c1cn(C)nc1C(F)F)C1CC1 (stereo not drawn) [compound 120] | 92% | 100% | – | 95% | –
Cn1nc(C(F)F)c(C(=O)N(Cc2ncc(-n3ccc(C(F)(F)F)n3)cc2Cl)C2CC2)c1F [compound 122] | – | – | – | – | Test C rating (% disease control) [1, 5]: 96%; Test D rating (% disease control) [3, 5]: 99%; Test E rating (% disease control) [4, 5]: 87%
Cn1nc(C(F)F)c(C(=O)N(Cc2cccc(-n3ccc(C(F)(F)F)n3)c2Cl)C2CC2)c1F [compound 136] | – | – | – | – | Test C rating (% disease control) [1, 7]: 100%; Test D rating (% disease control) [3, 7]: 99%; Test E rating (% disease control) [4, 7]: 87%
Cn1nc(C(F)F)c(C(=O)N(Cc2cccc(-n3ccc(C(F)(F)F)n3)c2C(F)(F)F)C2CC2)c1F [compound 137] | – | – | – | – | Test C rating (% disease control) [1, 7]: 94%; Test D rating (% disease control) [3, 7]: 98%; Test E rating (% disease control) [4, 7]: 87%
